Measurements: ChEMBL document CHEMBL3352615, “Synthesis and evaluation of ether-linked demethylepipodophyllotoxin dimers” (Bioorg Med Chem Lett, 2014)
The source made the active and inactive calls. The calls are words filed in the database; no cut-off is given here.

Tests used:
[1] = Selectivity ratio of IC50 for rat L6 cells to IC50 for human A549 cells; type: ADME, cell-based; conditions: L6 cells and A549 cells, read-out: Ratio IC50
[2] = molecular target: DNA topoisomerase 2-alpha (Homo sapiens) (UniProt P11388); experiment: Inhibition of human topoisomerase-2 alpha assessed as Escherichia coli pBR322 DNA cleavage at 100 uM after 30 mins by agarose electrophoresis
Sequence of DNA topoisomerase 2-alpha (Homo sapiens) (P11388 whole entry): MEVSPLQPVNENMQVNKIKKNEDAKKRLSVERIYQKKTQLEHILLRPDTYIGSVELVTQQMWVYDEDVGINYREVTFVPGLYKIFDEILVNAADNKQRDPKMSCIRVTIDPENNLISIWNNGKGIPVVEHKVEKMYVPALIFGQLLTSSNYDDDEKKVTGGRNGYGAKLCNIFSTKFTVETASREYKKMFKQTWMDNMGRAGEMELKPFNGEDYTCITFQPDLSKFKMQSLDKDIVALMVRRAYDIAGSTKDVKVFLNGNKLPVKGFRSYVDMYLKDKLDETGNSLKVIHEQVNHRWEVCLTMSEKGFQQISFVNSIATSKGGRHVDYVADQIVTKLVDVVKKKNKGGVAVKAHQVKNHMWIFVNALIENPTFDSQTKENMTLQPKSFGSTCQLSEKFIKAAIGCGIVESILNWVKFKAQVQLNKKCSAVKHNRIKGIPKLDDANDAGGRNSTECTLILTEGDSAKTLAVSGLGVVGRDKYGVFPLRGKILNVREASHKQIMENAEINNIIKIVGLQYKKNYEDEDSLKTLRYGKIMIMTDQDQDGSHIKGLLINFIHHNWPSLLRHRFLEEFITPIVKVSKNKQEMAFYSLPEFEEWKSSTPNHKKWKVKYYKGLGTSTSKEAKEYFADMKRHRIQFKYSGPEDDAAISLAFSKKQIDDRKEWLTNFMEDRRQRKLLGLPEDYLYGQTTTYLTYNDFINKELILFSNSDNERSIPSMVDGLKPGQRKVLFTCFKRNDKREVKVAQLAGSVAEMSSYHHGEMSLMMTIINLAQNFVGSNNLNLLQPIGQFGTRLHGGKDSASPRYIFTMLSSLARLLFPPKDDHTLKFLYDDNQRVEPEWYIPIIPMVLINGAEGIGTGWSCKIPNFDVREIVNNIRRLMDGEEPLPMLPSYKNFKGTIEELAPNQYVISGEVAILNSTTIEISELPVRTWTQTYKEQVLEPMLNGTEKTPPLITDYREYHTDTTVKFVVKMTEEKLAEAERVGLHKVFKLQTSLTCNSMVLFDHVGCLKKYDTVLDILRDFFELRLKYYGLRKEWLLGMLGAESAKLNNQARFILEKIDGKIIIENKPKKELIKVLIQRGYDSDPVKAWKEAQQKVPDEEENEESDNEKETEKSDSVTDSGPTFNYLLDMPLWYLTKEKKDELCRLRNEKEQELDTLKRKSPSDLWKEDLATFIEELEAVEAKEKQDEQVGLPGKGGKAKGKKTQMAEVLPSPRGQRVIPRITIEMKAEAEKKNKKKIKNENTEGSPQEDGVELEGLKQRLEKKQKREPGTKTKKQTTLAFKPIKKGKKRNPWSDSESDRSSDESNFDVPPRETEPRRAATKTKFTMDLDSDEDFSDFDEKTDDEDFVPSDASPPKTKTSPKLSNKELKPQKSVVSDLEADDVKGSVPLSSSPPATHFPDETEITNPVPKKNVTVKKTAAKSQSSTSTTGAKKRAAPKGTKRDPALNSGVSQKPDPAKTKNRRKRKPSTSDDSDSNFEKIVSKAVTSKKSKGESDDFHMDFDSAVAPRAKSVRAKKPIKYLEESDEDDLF

L6 = experiment: Cytotoxicity against rat L6 cells after 71.5 hrs by Presto Blue assay; type: cell-based; conditions: L6, 71.5 h
A549 = experiment: Cytotoxicity against human A549 cells after 48 hrs by Alamar Blue assay; type: functional, cell-based; conditions: A549, 48 h

Structure (SMILES) | inhibition [2] | selectivity ratio [1] | IC50 (L6) [nM] | IC50 (A549) [nM]
COc1cc([C@@H]2c3cc4c(cc3[C@@H](OCCCCO[C@@H]3c5cc6c(cc5[C@@H](c5cc(OC)c(O)c(OC)c5)[C@H]5C(=O)OC[C@@H]53)OCO6)[C@H]3COC(=O)[C@H]23)OCO4)cc(OC)c1O | Active | 4.3 | 300 | 70
COc1cc([C@@H]2c3cc4c(cc3[C@@H](O[C@@H]3O[C@@H]5CO[C@@H](C)O[C@H]5[C@H](O)[C@H]3O)[C@H]3COC(=O)[C@H]23)OCO4)cc(OC)c1O [ETOPOSIDE] | Active | 6.7 | 19000 | 2870
COc1cc([C@@H]2c3cc4c(cc3[C@@H](OCCCCCCO[C@@H]3c5cc6c(cc5[C@@H](c5cc(OC)c(O)c(OC)c5)[C@H]5C(=O)OC[C@@H]53)OCO6)[C@H]3COC(=O)[C@H]23)OCO4)cc(OC)c1O | Active | 2.5 | 300 | 120
COc1cc([C@@H]2c3cc4c(cc3[C@@H](OCc3ccc(CO[C@@H]5c6cc7c(cc6[C@@H](c6cc(OC)c(O)c(OC)c6)[C@H]6C(=O)OC[C@@H]65)OCO7)cc3)[C@H]3COC(=O)[C@H]23)OCO4)cc(OC)c1O | Active | 1.7 | 600 | 360

Second part, led by results:

inhibition [2] | Structure (SMILES) | selectivity ratio [1] | IC50 (L6) [nM] | IC50 (A549) [nM]
Active | COc1cc([C@@H]2c3cc4c(cc3[C@@H](OCc3ccccc3)[C@H]3COC(=O)[C@H]23)OCO4)cc(OC)c1O | 1.2 | 4550 | 3860
Active | CCCCO[C@@H]1c2cc3c(cc2[C@@H](c2cc(OC)c(O)c(OC)c2)[C@H]2C(=O)OC[C@@H]21)OCO3 | 1.6 | 4620 | 2870
Active | CCCCCCO[C@@H]1c2cc3c(cc2[C@@H](c2cc(OC)c(O)c(OC)c2)[C@H]2C(=O)OC[C@@H]21)OCO3 | 0.76 | 4550 | 5970
